# Test results taken from patent publication US20080194546A1, “Pyrido-, Pyrazo- and Pyrimido-Pyrimidine Derivatives as mTOR Inhibitors” (KuDOS Pharmaceuticals Limited, priority 2005, published 2008).
# Columns and labels:
# mTOR = target: T1, mTOR (Homo sapiens, UniProt P42345); test: Biological Assay: mTOR enzyme activity, mTOR immunoprecipitated from HeLa cell cytoplasmic extract, recombinant PHAS-1 as substrate; type: biochemical; details: Biological Assay, upper bounds; read-out: IC50 values against mTOR
# T1 construct: mTOR protein was isolated from HeLa cell cytoplasmic extract by immunoprecipitation; endogenous in cells; host or cells: HeLa cell cytoplasmic extract (immunoprecipitate)
# Description: For mTOR enzyme activity assays, mTOR protein was isolated from HeLa cell cytoplasmic extract by immunoprecipitation, and activity determined essentially as described previously using recombinant PHAS-1 as a substrate (ref. 21).
# T47D cells = test: Cell Proliferation Assay (GI50), sulforhodamine B (SRB) assay; type: cell-based; details: Homo sapiens, 120 hours, SRB
# Method: Cell growth was assessed using the sulforhodamine B (SRB) assay (A). T47D (ECACC, 85102201) cells were routinely passaged in RPMI (Invitrogen, 42401018) plus 10% foetal calf serum (FCS), 1% L-glutamine (Gibco BRL, 25030) to a confluence not greater than 80%. To undertake the assay, T47D cells were seeded at 2.5×10^3 cells/well in […] RPMI plus 10% foetal calf serum, 1% L-glutamine in 96 well plates (Costar, 3904) and incubated at 37° C. (+5% CO2) in a humidified incubator. Once the cells had fully adhered (typically following 4-5 hours incubation) the plate was removed from the incubator and 10 μL of the diluent added to the control wells (A1-12 and B1-12). Compound was prepared in a six point semi-log dilution at 10× the final concentration required e.g. for a 6 point range of 30 μM to 100 nM in semi-log steps dilution started at 300 μM in stock plate. Dosing was completed by addition of 10 μL of compound at highest concentration to C1-12 through to the lowest concentration in H1-12. The plates were then incubated for 120 hours prior to SRB analysis.
# Upon completion of incubation, media was removed and the cells fixed with […] of ice cold 10% (w/v) trichloroacetic acid. The plates were incubated at 4° C. for 20 minutes and then washed four times with water. Each well of cells was then stained with 100 μl of 0.4% (w/v) SRB (Sulforhodamine B, Sigma, Poole, Dorset, UK, Catalogue number S-9012) in 1% acetic acid for 20 minutes before washing four times with 1% acetic acid. Plates were then dried for 2 hours at room temperature. The dye from the stained cells was solubilized by the addition of 100 μl of 10 mM Tris Base into each well. Plates were gently shaken and left at room temperature for 30 minutes before measuring the optical density at 564 nm on a Microquant microtiter plate reader. The concentration of inhibitor eliciting a 50% reduction in growth (GI50) was determined by analysis of staining intensity of the treated cells as a percentage of the vehicle control wells using Excelfit software.
# (A) Skehan, P., Storung, R., Scudiero, R., Monks, A., McMahon, J., Vistica, D., Warren, J. T., Bokesch, H., Kenny, S. and Boyd, M. R. (1990) New […] cytotoxicity assay for anticancer-drug screening. J. Natl. Cancer Inst. 82, 1107-1112.
Compound,IC50 (mTOR) [nM],GI50 (T47D cells; upper bounds) [nM],GI50 (T47D cells) [nM]
COc1ccc(-c2ccc3c(N4CCOCC4)nc(N4C[C@@H](C)O[C@@H](C)C4)nc3n2)cc1CNCCCCCNC(=O)OC(C)(C)C [Example 8as],< 100,< 300,
COc1ccc(-c2ccc3c(N4CCOCC4)nc(N4C[C@@H](C)O[C@@H](C)C4)nc3n2)cc1CNCc1cccc([N+](=O)[O-])c1 [Example 8at],< 1000,< 300,
COc1ccc(-c2ccc3c(N4CCOCC4)nc(N4C[C@@H](C)O[C@@H](C)C4)nc3n2)cc1CN[C@H](C)c1ccc([N+](=O)[O-])cc1 [Example 8au],< 1000,< 300,
COc1ccc(-c2ccc3c(N4CCOCC4)nc(N4C[C@@H](C)O[C@@H](C)C4)nc3n2)cc1CNC1CCc2ccccc21 (stereo partly drawn) [Example 8av],< 100,< 300,
COc1ccc(-c2ccc3c(N4CCOCC4)nc(N4C[C@@H](C)O[C@@H](C)C4)nc3n2)cc1CNCc1ccc([35Cl])cc1[35Cl] [Example 8aw],< 100,< 300,
COc1ccc(-c2ccc3c(N4CCOCC4)nc(N4C[C@@H](C)O[C@@H](C)C4)nc3n2)cc1CNCc1ccccc1[35Cl] [Example 8ax],< 100,< 300,
COc1ccc(-c2ccc3c(N4CCOCC4)nc(N4C[C@@H](C)O[C@@H](C)C4)nc3n2)cc1CNc1ccc(N2CCOCC2)cc1 [Example 8ay],< 1000,< 300,
COc1ccc(-c2ccc3c(N4CCOCC4)nc(N4C[C@@H](C)O[C@@H](C)C4)nc3n2)cc1CNC(c1ccccc1)c1ccccc1 [Example 8az],< 1000,< 300,
COc1ccc(-c2ccc3c(N4CCOCC4)nc(N4C[C@@H](C)O[C@@H](C)C4)nc3n2)cc1CNC1CC1 [Example 8b],< 100,< 300,
COc1ccc(-c2ccc3c(N4CCOCC4)nc(N4C[C@@H](C)O[C@@H](C)C4)nc3n2)cc1CNc1ccc(OCc2ccccc2)cc1 [Example 8ba],< 1000,< 300,
COc1ccc(-c2ccc3c(N4CCOCC4)nc(N4C[C@@H](C)O[C@@H](C)C4)nc3n2)cc1CNCC(O)c1cccc(O)c1 (stereo partly drawn) [Example 8bb],< 100,< 300,
COc1ccc(-c2ccc3c(N4CCOCC4)nc(N4C[C@@H](C)O[C@@H](C)C4)nc3n2)cc1CNCCCc1ccccc1 [Example 8bc],< 100,< 300,
COc1ccc(-c2ccc3c(N4CCOCC4)nc(N4C[C@@H](C)O[C@@H](C)C4)nc3n2)cc1CN[C@H](CO)CCSC [Example 8bd],< 1000,< 300,
COC[C@H](Cc1ccccc1)NCc1cc(-c2ccc3c(N4CCOCC4)nc(N4C[C@@H](C)O[C@@H](C)C4)nc3n2)ccc1OC [Example 8be],< 100,< 300,
CCCCCOc1ccc(NCc2cc(-c3ccc4c(N5CCOCC5)nc(N5C[C@@H](C)O[C@@H](C)C5)nc4n3)ccc2OC)cc1 [Example 8bf],< 1000,< 300,
COc1ccc(-c2ccc3c(N4CCOCC4)nc(N4C[C@@H](C)O[C@@H](C)C4)nc3n2)cc1CNCc1ccc2c(c1)OCO2 [Example 8bg],< 100,< 300,
COc1ccc(-c2ccc3c(N4CCOCC4)nc(N4C[C@@H](C)O[C@@H](C)C4)nc3n2)cc1CNCCc1cnc[nH]1 [Example 8c],< 100,,< 1000
COc1ccc(-c2ccc3c(N4CCOCC4)nc(N4C[C@@H](C)O[C@@H](C)C4)nc3n2)cc1CNCCO [Example 8d],< 100,< 300,
COc1ccc(CCNCc2cc(-c3ccc4c(N5CCOCC5)nc(N5C[C@@H](C)O[C@@H](C)C5)nc4n3)ccc2OC)cc1 [Example 8e],< 100,,< 1000
CNCc1cc(-c2ccc3c(N4CCOCC4)nc(N4C[C@@H](C)O[C@@H](C)C4)nc3n2)ccc1OC [Example 8f],< 100,< 300,

Compound,IC50 (mTOR) [nM],GI50 (T47D cells; upper bounds) [nM],GI50 (T47D cells) [nM]
COc1ccc(-c2ccc3c(N4CCOCC4)nc(N4C[C@@H](C)O[C@@H](C)C4)nc3n2)cc1CNCC1CC1 [Example 8g],< 100,< 300,
CCN(CC)CCCNCc1cc(-c2ccc3c(N4CCOCC4)nc(N4C[C@@H](C)O[C@@H](C)C4)nc3n2)ccc1OC [Example 8h],< 100,,< 1000
COc1ccc(-c2ccc3c(N4CCOCC4)nc(N4C[C@@H](C)O[C@@H](C)C4)nc3n2)cc1CNC1CCOCC1 [Example 8i],< 100,< 300,
COc1ccc(-c2ccc3c(N4CCOCC4)nc(N4C[C@@H](C)O[C@@H](C)C4)nc3n2)cc1CNC1CCCC1 [Example 8k],< 100,< 300,
CCCCNCc1cc(-c2ccc3c(N4CCOCC4)nc(N4C[C@@H](C)O[C@@H](C)C4)nc3n2)ccc1OC [Example 8l],< 100,< 300,
COc1ccc(-c2ccc3c(N4CCOCC4)nc(N4C[C@@H](C)O[C@@H](C)C4)nc3n2)cc1CNCCC(C)C [Example 8m],< 100,,< 1000
COc1ccc(-c2ccc3c(N4CCOCC4)nc(N4C[C@@H](C)O[C@@H](C)C4)nc3n2)cc1CNC1CCCCCCC1 [Example 8n],< 100,,< 1000
COc1ccc(-c2ccc3c(N4CCOCC4)nc(N4C[C@@H](C)O[C@@H](C)C4)nc3n2)cc1CNC1CCCCC1 [Example 8o],< 100,,< 1000
COc1ccc(-c2ccc3c(N4CCOCC4)nc(N4C[C@@H](C)O[C@@H](C)C4)nc3n2)cc1CNC1CCC(C)CC1 (stereo partly drawn) [Example 8p],< 1000,,< 1000
COc1ccc(-c2ccc3c(N4CCOCC4)nc(N4C[C@@H](C)O[C@@H](C)C4)nc3n2)cc1CNCCC(C)(C)C [Example 8q],< 1000,,< 1000
COc1ccc(-c2ccc3c(N4CCOCC4)nc(N4C[C@@H](C)O[C@@H](C)C4)nc3n2)cc1CNC(C)C [Example 8r],< 1000,< 300,
CCOCCCNCc1cc(-c2ccc3c(N4CCOCC4)nc(N4C[C@@H](C)O[C@@H](C)C4)nc3n2)ccc1OC [Example 8s],< 1000,,< 1000
COc1ccc(-c2ccc3c(N4CCOCC4)nc(N4C[C@@H](C)O[C@@H](C)C4)nc3n2)cc1CNC(C)CC(C)C (stereo partly drawn) [Example 8t],< 1000,< 300,
COc1ccc(-c2ccc3c(N4CCOCC4)nc(N4C[C@@H](C)O[C@@H](C)C4)nc3n2)cc1CNCC(C)C [Example 8u],< 1000,< 300,
COCCNCc1cc(-c2ccc3c(N4CCOCC4)nc(N4C[C@@H](C)O[C@@H](C)C4)nc3n2)ccc1OC [Example 8v],< 1000,,< 1000
COc1ccc(-c2ccc3c(N4CCOCC4)nc(N4C[C@@H](C)O[C@@H](C)C4)nc3n2)cc1CNC1CCCCC1C (stereo partly drawn) [Example 8w],< 1000,,< 1000
C#CC1(NCc2cc(-c3ccc4c(N5CCOCC5)nc(N5C[C@@H](C)O[C@@H](C)C5)nc4n3)ccc2OC)CCCCC1 [Example 8x],< 1000,,< 1000
COc1ccc(-c2ccc3c(N4CCOCC4)nc(N4C[C@@H](C)O[C@@H](C)C4)nc3n2)cc1CNC(Cc1ccc([N+](=O)[O-])cc1)C(=O)O (stereo partly drawn) [Example 8y],< 1000,,< 1000
COc1ccc(-c2ccc3c(N4CCOCC4)nc(N4C[C@@H](C)O[C@@H](C)C4)nc3n2)cc1CNCc1cccc(OC)c1OC [Example 8z],< 10000,,< 1000
